{"source": "patent US20160199338A1", "about": "“COMPOSITIONS CONTAINING MONOACETYLDIACYLGLYCEROL COMPOUND AS AN ACTIVE INGREDIENT FOR PREVENTING OR TREATING RHEUMATOID ARTHRITIS” (ENZYCHEM LIFESCIENCES CORPORATION, priority 2013, published 2016)", "key": {"[1]": {"test_system": "arthritis induced by bovine type II collagen in male DBA/1J mouse", "assay": "Collagen-induced arthritis animal model", "assay_type": "in vivo", "details": "for histopathological arthritis score of knee joint: knee joint of both hind legs, vs negative control (FIG. 6); for histopathological arthritis score of knee joint / concentration of IL-6 in serum: EC-18 125, 500, 2,000 mg/kg oral, Remicade 20 mg/kg intraperitoneal, methotrexate 2.5 mg/kg oral; for concentration of IL-6 in serum: serum collected at day of tissue excision, once a day for five weeks, vs negative control (FIG. 4)", "protocol": "For arthritis animal model experiment, arthritis was induced in male DBA/1J mouse by administering bovine type II collagen to the mouse. Efficacy of EC-18 for treating (or improving) arthritis was evaluated by repeatedly administering EC-18 to the mouse orally. For comparison, Remicade (positive control 1) was administered intraperitoneally and methotrexate (positive control 2) was administered orally. The experiment included seven groups: normal group (G1), negative control (G2), 125 mg/kg, 500 mg/kg and 2,000 mg/kg of EC-18 (EC-18 treatment groups, G3, G4, G5), 20 mg/kg of Remicade (Positive control 1, G6) and 2.5 mg/kg of Methotrexate (Positive control 2, G7). Each group consists of 10 mice. Olive oil was administered to normal group (G1) and negative control group (G2) as an excipient. In all groups, administration was made once a day for five weeks (a total of 35 administrations). Remicade (G6) was administered intraperitoneally, whereas EC-18, methotrexate and olive oil were administered orally in force. For all groups except normal Group (G1), arthritis was induced by immunizing animals twice with bovine type II collagen and complete Freund's adjuvant or incomplete Freund's adjuvant emulsion. During the observation period, common arthritis symptoms were observed once a day, weigh measured once a week, arthritic score evaluation made with the naked eye twice a week, foot thickness measured twice a week."}, "[2]": {"details": "GLP toxicity test; cited from earlier work"}}, "data": [{"molecule": "Remicade: positive control 1, administered intraperitoneally at 20 mg/kg", "values": [{"measurement": "crushing of cartilage and increase of Pannus (stained arthritic tissue)", "setting": "[1]; EC-18 500 mg/kg (G4), Remicade 20 mg/kg (G6), vs negative control (FIGS. 7 and 8)", "value": "reduced"}, {"measurement": "histopathological arthritis score of knee joint", "setting": "[1]", "value": "reduced"}, {"measurement": "concentration of IL-6 in serum", "setting": "[1]", "value": "reduced"}]}, {"molecule": "CCCCC/C=C\\C/C=C\\CCCCCCCC(=O)OC(COC(C)=O)COC(=O)CCCCCCCCCCCCCCC", "note": "(stereo not drawn) [EC-18, 1-palmitoyl-2-linoleoyl-3-acetylglycerol]", "values": [{"measurement": "toxicity", "setting": "[2]", "value": "no toxicity"}]}, {"molecule": "CN(Cc1cnc2nc(N)nc(N)c2n1)c1ccc(C(=O)N[C@@H](CCC(=O)O)C(=O)O)cc1", "note": "[Methothrexate, methotrexate]", "values": [{"measurement": "histopathological arthritis score of knee joint", "setting": "[1]", "value": "reduced"}, {"measurement": "concentration of IL-6 in serum", "setting": "[1]", "value": "reduced"}]}]}
